{"source": "paper PMC12735969", "about": "“Regulation of NAD^+ Homeostasis by SsNrtR in Streptococcus Sobrinus: A Critical Determinant of Its Cariogenic Potential” (Pathogens, 2025)", "biological_target": "T1, SsNrtR (Streptococcus sobrinus, UniProt A0ABM6W328)", "T1 construct": "gene DK182_01300; full-length, hexahistidine tag, pET28b-nrtR, E. coli BL21(DE3), Ni-NTA and Superdex 200; about 28 kDa; dimer and oligomers", "test": "EMSA, release from pnuC/pncB promoter DNA", "type": "binding", "conditions": "ADPR 0-1.0 mM; 200 bp pnuC/pncB promoter probe; allosteric anti-repressor", "data": [{"smiles": "Nc1ncnc2c1ncn2[C@@H]1O[C@H](COP(=O)(O)OP(=O)(O)OC[C@H]2OC(O)[C@H](O)[C@@H]2O)[C@@H](O)[C@H]1O", "note": "(stereo partly shown) [ADP-ribose]", "values": [{"measurement": "EMSA, release from pnuC/pncB promoter DNA", "value": "the interaction between SsNrtR and the pnuC/pncB DNA probe was disrupted by ADPR"}]}]}
